Test results: article PMC6303473 (Nature Communications, 2018)

Test system: CD8+ T cells from HLA-B*44:02, HLA-B*44:03, or HLA-B*18:01 individuals
Assay type: cell-based, human
Details: ICS
Excerpt: Fig. 1 NP338 elicits robust CD8^+ T cell responses only in the context of HLA-B*37:01. a–d Crystal structures of a HLA-B*37:01 (purple), b HLA-B*18:01 (blue), and c HLA-B*44:05 (yellow) in complex with NP338 WT (represented in black stick). d is showing an overlay of the three peptide–HLA complexes in cartoon representation, with NP338 colored accordingly to the bound HLA, namely, purple (HLA-B*37:01), blue (HLA-B*18:01), and yellow (HLA-B*44:05). e–g PBMCs from HLA-B*37:01^+ donors (n = 5), HLA-B*44:02^+ donors (n = 5), HLA-B*44:03^+ donors (n = 5), or HLA-B*18:01^+ donors (n = 5) were stimulated with a pool of NP338 peptides (10 μM each peptide, 30 μM total), and specificity was assessed in an ICS assay against 3 μM NP338 pool (1 μM each peptide, HLA-B*44:02^+ donors) directly into the well or 30 μM (10 μM each peptide, all other donors) NP338-pooled pulsed APC lines (HLA-B*37:01, HLA-B*44:03, and HLA-B*18:01). CD8^+ T cells are gated on lymphocytes, singlets, live^+ (when stained with the second antibody cocktail only) CD3^mid-high, CD8^+ T cells; as per Supplementary Fig. 2a. e Representative dot plots of IFNγ^+TNFα^+ production by pooled CD8^+ T cell lines derived from HLA-B*37:01^+, HLA-B*44:02^+, HLA-B*44:03^+, or HLA-B*18:01^+ donors, towards a pool of NP338 peptides. […]

| Molecule | CD8+ T cell response to non-specific stimulation |
| --- | --- |
| Concanavalin A | responded strongly |
| CCCCCCCCCCCCCC(=O)O[C@@H]1[C@@H](C)[C@@]2(O)[C@@H](C=C(CO)C[C@]3(O)C(=O)C(C)=C[C@@H]23)[C@@H]2C(C)(C)[C@]12OC(C)=O [phorbol 12-myristate 13-acetate] | responded strongly |
